The target in experiment [1] is Leucine-rich repeat serine/threonine-protein kinase 2 (Homo sapiens, UniProt Q5S007). It counts as functional.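 Also: value from a broad kinome-wide panel profiling study in which LRRK2 was one of the kinases tested.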
In experiment [2] the target is Platelet-derived growth factor receptor alpha (Homo sapiens, UniProt P16234). Put plainly: Navigating the Kinome. Panel member name: PDGFRA. It counts as functional.
The target of experiment [3] is Protein kinase C theta type (Homo sapiens, UniProt Q04759). Put plainly: Navigating the Kinome. Panel member name: PRKCQ. It counts as functional.
In experiment [4] the target is Insulin-like growth factor 1 receptor (Homo sapiens, UniProt P08069). Put plainly: Navigating the Kinome. Panel member name: IGF1R. It counts as functional.
Experiment [5] has as its target Tyrosine-protein kinase Fyn (Homo sapiens, UniProt P06241). It counts as functional.
For experiment [6], the target named is Dual specificity mitogen-activated protein kinase kinase 2 (Homo sapiens, UniProt P36507). Nature of the experiment: Navigating the Kinome. Panel member name: MAP2K2. It counts as functional.
Experiment [7] addresses Dual specificity protein kinase CLK2 (Homo sapiens, UniProt P49760). It counts as functional.
Experiment [8] deals with Cyclin-dependent kinase 5 (Homo sapiens, UniProt Q00535). It counts as functional.
The target of experiment [9] is Hepatocyte growth factor receptor (Homo sapiens, UniProt P08581). It counts as functional.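 Also: kinase panel profiling across the kinome, with MET as the panel member.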
The target in experiment [10] is Rho-associated protein kinase 1 (Homo sapiens, UniProt Q13464). It counts as functional.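 Also: measured within a broad kinome-wide panel profiling many kinases.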
The target in another experiment is LIM domain kinase 1 (Homo sapiens, UniProt P53667). Put plainly: Navigating the Kinome. Panel member name: LIMK1. It counts as functional.
Experiment [11] has as its target Vascular endothelial growth factor receptor 1 (Homo sapiens, UniProt P17948). It counts as functional.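 Also: measured within a kinome-wide profiling panel, FLT1 as the panel member.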
Experiment [12] concerns the target Tyrosine-protein kinase Lck (Homo sapiens, UniProt P06239). It counts as functional.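 Also: lck was assayed as one member of a kinase panel.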
In experiment [13] the target is Fibroblast growth factor receptor 1 (Homo sapiens, UniProt P11362). It counts as functional.
The target of experiment [14] is Serine/threonine-protein kinase D3 (Homo sapiens, UniProt O94806). It counts as functional.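 Also: determined within a kinase panel screen, with PRKCN as the panel member.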
Experiment [15] has as its target Leukocyte tyrosine kinase receptor (Homo sapiens, UniProt P29376). Put plainly: Navigating the Kinome. Panel member name: LTK. It counts as functional.
Experiment [16] addresses Glycogen synthase kinase-3 alpha (Homo sapiens, UniProt P49840). It counts as functional.
In experiment [17] the target is High affinity nerve growth factor receptor (Homo sapiens, UniProt P04629). It counts as functional.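 Also: NTRK1 tested as one member of a kinome-wide profiling panel.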
For another experiment, the target named is Activin receptor type-1 (Homo sapiens, UniProt Q04771). Nature of the experiment: Navigating the Kinome. Panel member name: ACVR1. It counts as functional.
The target in experiment [18] is Mitogen-activated protein kinase 9 (Homo sapiens, UniProt P45984). It counts as functional.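 Also: value from a kinome panel profiling assay, MAPK9 panel entry.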
For experiment [19], the target named is Tyrosine-protein kinase receptor TYRO3 (Homo sapiens, UniProt Q06418). It counts as functional.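 Also: TYRO3 value obtained as one member of a kinome-wide profiling panel.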
The target of experiment [20] is Mitogen-activated protein kinase kinase kinase kinase 2 (Homo sapiens, UniProt Q12851). It counts as functional.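 Also: measured as one member of a kinome-wide kinase panel, with MAP4K2 as the panel entry.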
The next experiment concerns the target Focal adhesion kinase 1 (Homo sapiens, UniProt Q05397). It counts as functional.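 Also: measured as one member of a kinome panel.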
Experiment [21] addresses Casein kinase I isoform alpha (Homo sapiens, UniProt P48729). It counts as functional.
The target of experiment [22] is Macrophage-stimulating protein receptor (Homo sapiens, UniProt Q04912). Put plainly: Navigating the Kinome. Panel member name: MST1R. It counts as functional.
The target in experiment [23] is Tyrosine-protein kinase JAK2 (Homo sapiens, UniProt O60674). It counts as functional.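 Also: JAK2 tested as one member of a kinase panel.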
Experiment [24] in a line: THP-1 cell cytotoxicity, cytotoxicity control, set 4 (AID 504911). It counts as functional. Conditions: Mycobacterium tuberculosis.
Experiment [25] is described as follows: Vero cell cytotoxicity, dose response, cytotoxicity control for M. tuberculosis growth inhibitor project, Vero cells, purified and synthesized compounds, set 4 (AID 504854). Conditions: Mycobacterium tuberculosis. It counts as functional.
Experiment [26] in a line: Vero cell cytotoxicity, cytotoxicity control for M. tuberculosis inhibitor project, purified and synthesized samples, set 3 (AID 504684). It counts as functional. Conditions: […].
Experiment [27] in a line: microbe, parasite or virus in culture. Particulars: Mycobacterium tuberculosis. It counts as functional.
A further experiment has as its target T1, CAAX prenyl protease 2 (Homo sapiens, UniProt Q9Y256).
T1 sequence (Q9Y256 whole entry): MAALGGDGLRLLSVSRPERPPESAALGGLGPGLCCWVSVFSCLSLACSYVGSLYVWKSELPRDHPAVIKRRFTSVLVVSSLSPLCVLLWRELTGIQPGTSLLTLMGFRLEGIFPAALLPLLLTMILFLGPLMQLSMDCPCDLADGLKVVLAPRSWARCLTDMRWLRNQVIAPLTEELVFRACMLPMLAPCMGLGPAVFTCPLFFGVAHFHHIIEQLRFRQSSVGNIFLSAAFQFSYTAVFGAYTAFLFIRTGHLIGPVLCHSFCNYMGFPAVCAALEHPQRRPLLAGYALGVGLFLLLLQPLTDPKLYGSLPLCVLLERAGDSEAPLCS
Put plainly: human Rce1 protease inhibitors, dose response, biochemical, yeast membranes, quenched-peptide fluorescence, cherry-pick (AID 588849).

Experiment [28] in a line: Vero cell cytotoxicity, dose response, cytotoxicity control for M. tuberculosis growth inhibitor project, Vero cells, purified and synthesized compounds, set 5 (AID 504909). It counts as functional. Particulars: Mycobacterium tuberculosis.
In another experiment the target is CAAX prenyl protease 1 (Saccharomyces cerevisiae S288c, UniProt P47154). Put plainly: Ste24 protease inhibitors, dose response, biochemical, S. cerevisiae, plate reader, cherry-pick (AID 488815).
The nature of experiment [29]: A Cell Based Secondary Assay to Explore Cytotoxicity in THP-1 Cells of Compounds that Modulate Mycobacterium tuberculosis in Media Containing Glycerol versus Media without Glycerol (2). It counts as functional.
A short description of experiment [30]: HepG2 cell cytotoxicity, dose response, cytotoxicity control, set 3 (AID 504853). It counts as functional. Conditions: Mycobacterium tuberculosis.
A short description of experiment [31]: THP-1 cell cytotoxicity, dose response, cytotoxicity control, set 3 (AID 504852). It counts as functional. Particulars: Mycobacterium tuberculosis.
Experiment [32] in a line: A Cell Based Secondary Assay to Explore Cytotoxicity in HepG2 Cells of Compounds that Modulate Mycobacterium tuberculosis in Media Containing Glycerol versus Media without Glycerol (2). It counts as functional.
Experiment [33] deals with Melanin-concentrating hormone receptor 1 (Homo sapiens, UniProt Q99705). Put plainly: Late-stage fluorescence-based counterscreen for antagonists of the G-protein coupled receptor 7 (GPR7): cell-based dose response assay to identify antagonists of the melanin-concentrating hormone receptor 1 (MCHR1) Set 6. It counts as functional.
The target in experiment [34] is T2, Neuropeptides B/W receptor type 1 (Homo sapiens, UniProt P48145).
T2 sequence (P48145 whole entry): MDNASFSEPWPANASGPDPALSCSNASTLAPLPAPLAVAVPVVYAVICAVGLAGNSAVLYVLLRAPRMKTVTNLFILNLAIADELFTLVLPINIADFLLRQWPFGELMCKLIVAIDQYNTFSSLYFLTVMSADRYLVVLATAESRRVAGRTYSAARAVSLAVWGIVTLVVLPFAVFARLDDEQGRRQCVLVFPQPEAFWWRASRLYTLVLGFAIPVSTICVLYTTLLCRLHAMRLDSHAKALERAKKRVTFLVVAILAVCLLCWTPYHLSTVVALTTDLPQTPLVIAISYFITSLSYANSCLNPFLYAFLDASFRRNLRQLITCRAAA
Put plainly: GPR7 antagonist potency, late-stage follow-up, cell-based, fluorescence, dose response, set 6 (AID 588583). It counts as functional.

Activity calls are given as the source filed them.

The values that follow come from ChEMBL document CHEMBL1201862, “PubChem BioAssay data set” (2004).

By Ki is commonly meant the equilibrium dissociation constant of an inhibitor or competing ligand from its target. Usually AC50 stands for the midpoint of the concentration-response curve, whichever way the signal moves. A word on the IC50: it is the concentration at which inhibition is half-maximal.

Chain of High affinity nerve growth factor receptor (P04629 whole entry): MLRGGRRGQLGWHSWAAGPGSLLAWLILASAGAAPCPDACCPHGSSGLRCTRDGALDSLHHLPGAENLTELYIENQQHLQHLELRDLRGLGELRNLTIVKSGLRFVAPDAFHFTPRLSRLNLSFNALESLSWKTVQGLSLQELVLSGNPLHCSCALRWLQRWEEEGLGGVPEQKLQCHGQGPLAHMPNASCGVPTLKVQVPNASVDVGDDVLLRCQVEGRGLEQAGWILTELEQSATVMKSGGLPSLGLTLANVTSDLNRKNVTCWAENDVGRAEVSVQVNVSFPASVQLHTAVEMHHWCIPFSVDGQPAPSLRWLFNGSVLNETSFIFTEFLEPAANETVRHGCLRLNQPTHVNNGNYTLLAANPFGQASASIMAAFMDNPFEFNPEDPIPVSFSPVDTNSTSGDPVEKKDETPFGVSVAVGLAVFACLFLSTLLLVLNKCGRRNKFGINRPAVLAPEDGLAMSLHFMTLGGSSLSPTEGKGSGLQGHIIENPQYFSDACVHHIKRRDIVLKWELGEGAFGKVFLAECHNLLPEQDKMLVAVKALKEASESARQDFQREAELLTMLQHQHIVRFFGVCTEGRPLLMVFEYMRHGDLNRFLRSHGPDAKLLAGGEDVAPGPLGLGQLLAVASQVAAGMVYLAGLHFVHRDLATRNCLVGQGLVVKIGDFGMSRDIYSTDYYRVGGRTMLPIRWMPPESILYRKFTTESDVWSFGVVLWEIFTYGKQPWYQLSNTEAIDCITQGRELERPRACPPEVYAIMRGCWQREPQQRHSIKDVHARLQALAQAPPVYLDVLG
Chain of Vascular endothelial growth factor receptor 1 (P17948 whole entry): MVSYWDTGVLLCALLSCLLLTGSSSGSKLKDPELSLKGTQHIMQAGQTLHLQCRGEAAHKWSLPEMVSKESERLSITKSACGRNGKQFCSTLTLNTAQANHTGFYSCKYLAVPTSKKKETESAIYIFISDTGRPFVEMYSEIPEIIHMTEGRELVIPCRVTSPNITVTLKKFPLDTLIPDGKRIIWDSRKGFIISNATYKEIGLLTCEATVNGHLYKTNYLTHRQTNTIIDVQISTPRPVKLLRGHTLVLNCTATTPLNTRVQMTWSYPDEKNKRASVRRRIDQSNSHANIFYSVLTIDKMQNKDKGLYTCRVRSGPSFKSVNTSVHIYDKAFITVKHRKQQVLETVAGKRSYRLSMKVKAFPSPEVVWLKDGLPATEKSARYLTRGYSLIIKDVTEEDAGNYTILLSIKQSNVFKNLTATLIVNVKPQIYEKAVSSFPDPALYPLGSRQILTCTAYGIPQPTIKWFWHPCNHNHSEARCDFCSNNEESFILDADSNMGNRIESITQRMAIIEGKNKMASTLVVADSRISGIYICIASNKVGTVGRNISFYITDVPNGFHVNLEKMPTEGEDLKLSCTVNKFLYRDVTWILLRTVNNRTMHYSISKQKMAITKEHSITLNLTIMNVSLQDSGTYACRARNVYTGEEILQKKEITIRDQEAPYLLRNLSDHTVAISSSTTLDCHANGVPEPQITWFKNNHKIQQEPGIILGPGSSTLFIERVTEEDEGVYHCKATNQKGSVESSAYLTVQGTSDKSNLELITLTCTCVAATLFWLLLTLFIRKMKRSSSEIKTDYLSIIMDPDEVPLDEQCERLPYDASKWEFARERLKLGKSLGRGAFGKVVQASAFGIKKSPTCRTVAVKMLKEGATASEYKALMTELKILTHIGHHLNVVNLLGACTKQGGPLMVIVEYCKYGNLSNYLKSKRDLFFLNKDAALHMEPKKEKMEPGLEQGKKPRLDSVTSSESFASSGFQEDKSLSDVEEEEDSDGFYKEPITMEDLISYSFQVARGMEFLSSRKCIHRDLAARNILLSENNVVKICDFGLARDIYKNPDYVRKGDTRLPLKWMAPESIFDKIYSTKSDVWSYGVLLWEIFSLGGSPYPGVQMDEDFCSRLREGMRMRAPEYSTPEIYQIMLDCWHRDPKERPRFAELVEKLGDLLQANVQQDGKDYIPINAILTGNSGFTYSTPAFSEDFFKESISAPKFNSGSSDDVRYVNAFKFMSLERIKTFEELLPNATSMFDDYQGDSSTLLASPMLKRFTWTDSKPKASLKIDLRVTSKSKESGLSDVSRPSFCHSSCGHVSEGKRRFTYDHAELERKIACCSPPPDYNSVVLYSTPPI
Chain of Protein kinase C theta type (Q04759 whole entry): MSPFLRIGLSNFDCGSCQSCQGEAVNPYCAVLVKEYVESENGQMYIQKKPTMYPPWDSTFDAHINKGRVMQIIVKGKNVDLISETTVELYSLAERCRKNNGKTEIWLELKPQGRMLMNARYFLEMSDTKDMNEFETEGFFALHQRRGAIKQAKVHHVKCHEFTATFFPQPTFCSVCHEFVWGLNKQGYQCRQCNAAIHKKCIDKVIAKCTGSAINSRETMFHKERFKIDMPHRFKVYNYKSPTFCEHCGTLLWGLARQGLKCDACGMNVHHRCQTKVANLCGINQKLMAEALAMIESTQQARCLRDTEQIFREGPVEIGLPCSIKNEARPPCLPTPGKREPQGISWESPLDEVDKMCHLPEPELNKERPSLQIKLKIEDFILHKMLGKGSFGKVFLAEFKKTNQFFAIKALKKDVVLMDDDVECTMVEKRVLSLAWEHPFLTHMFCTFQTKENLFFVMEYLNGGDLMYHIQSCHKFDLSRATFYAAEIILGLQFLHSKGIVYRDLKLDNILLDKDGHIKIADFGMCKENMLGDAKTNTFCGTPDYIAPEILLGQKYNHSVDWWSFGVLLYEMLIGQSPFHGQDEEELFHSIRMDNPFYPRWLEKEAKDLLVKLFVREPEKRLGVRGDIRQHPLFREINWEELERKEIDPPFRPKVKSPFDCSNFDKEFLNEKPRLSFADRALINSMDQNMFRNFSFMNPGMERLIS
Chain of Fibroblast growth factor receptor 1 (P11362 whole entry): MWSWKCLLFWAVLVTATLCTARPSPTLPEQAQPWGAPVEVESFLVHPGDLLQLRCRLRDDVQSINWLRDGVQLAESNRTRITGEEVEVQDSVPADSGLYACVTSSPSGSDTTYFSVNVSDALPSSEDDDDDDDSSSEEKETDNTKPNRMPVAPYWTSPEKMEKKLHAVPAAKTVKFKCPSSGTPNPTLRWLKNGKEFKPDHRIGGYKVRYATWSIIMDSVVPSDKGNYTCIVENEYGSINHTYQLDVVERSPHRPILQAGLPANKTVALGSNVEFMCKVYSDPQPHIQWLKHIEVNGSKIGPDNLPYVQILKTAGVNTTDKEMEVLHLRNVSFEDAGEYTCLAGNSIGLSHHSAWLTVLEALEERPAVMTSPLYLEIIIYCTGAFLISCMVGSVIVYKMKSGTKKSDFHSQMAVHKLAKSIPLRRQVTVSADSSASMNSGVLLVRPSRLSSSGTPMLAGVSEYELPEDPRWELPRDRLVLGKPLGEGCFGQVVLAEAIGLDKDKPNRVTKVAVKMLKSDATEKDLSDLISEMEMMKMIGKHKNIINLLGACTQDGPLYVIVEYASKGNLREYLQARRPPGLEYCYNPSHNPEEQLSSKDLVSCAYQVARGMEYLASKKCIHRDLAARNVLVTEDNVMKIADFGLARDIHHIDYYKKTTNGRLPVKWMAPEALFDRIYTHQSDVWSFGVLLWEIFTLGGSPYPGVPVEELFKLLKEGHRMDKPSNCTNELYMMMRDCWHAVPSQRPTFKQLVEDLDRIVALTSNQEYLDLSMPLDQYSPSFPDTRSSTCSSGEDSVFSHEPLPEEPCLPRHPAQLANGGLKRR
Chain of Cyclin-dependent kinase 5 (Q00535 whole entry): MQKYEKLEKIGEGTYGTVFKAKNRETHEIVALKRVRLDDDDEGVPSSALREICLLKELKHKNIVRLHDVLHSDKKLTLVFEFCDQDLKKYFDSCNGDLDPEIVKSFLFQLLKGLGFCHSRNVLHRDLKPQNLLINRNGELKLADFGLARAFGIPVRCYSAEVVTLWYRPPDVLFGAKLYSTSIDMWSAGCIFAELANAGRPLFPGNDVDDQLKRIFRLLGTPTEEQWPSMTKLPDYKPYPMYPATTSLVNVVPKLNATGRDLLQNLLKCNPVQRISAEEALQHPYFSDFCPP
Chain of Tyrosine-protein kinase JAK2 (O60674 whole entry): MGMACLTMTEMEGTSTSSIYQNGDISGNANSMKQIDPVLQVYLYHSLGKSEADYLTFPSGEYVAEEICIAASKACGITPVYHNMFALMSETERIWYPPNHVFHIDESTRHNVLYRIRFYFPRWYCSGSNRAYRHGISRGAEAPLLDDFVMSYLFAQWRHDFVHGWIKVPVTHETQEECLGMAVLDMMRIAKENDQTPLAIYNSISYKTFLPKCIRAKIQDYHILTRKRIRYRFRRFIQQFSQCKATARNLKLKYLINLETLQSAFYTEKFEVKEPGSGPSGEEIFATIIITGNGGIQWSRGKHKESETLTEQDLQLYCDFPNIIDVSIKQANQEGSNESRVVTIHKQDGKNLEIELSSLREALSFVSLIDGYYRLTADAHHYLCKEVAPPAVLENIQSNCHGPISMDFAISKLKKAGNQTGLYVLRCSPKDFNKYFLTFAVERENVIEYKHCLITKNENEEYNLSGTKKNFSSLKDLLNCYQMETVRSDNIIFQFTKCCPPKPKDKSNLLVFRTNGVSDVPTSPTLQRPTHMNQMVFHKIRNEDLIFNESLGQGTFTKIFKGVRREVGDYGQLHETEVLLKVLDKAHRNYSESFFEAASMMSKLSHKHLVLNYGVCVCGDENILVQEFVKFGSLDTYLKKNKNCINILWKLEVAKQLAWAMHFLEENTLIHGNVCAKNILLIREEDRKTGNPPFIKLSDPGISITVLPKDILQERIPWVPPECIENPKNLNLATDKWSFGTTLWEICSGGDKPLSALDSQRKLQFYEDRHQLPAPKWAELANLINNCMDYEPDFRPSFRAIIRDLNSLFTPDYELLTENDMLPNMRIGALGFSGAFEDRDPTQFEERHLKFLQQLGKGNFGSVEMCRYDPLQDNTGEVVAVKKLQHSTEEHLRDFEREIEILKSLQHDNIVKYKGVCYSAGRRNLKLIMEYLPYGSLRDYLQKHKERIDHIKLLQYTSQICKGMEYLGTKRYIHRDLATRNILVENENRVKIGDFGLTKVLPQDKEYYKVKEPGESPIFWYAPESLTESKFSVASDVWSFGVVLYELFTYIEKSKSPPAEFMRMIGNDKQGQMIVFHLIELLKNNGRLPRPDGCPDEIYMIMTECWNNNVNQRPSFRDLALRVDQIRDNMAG

Take `Nc1ncnc2c1c(-c1cnc3[nH]ccc3c1)nn2C1CCCC1`: the Ki in experiment [1] was 63.1 nM (active); in experiment [2], 316 nM (active); in [3] it was 501 nM (active); in experiment [4], 398 nM (active); in experiment [5], 79.4 nM (active); in experiment [6], 1000 nM (active). Also, the Ki is 1000 nM (active) in experiment [7]; 1260 nM (active) in [8]; > 2510 nM (inactive) in experiment [9]; 200 nM (active) in experiment [10]; 158 nM (active) at LIM domain kinase 1; 63.1 nM (active) in experiment [11]. For the same compound, the Ki in experiment [12] is 158 nM (active); in [13] it was 100 nM (active); in experiment [14], 251 nM (active); in [15], 158 nM (active); in experiment [16], 2000 nM (active); in experiment [17] it was > 3160 nM (inactive). The Ki at Activin receptor type-1 is 63.1 nM (active); in experiment [18], 1260 nM (active); in [19], 794 nM (active); in experiment [20], 316 nM (active); on Focal adhesion kinase 1 it was 1260 nM (active); in [21], 39.8 nM (active). Besides, the inhibition constant Ki in experiment [22] is 126 nM (active); in [23], 1000 nM (active).
For `Cc1cc(Br)ccc1NC(=O)c1cnc(N2CCN(c3ccccn3)CC2)c2ccccc12`, the CC50 in experiment [24] was 13200 nM (active); in [25], 82000 nM (active); in [26], 46300 nM (active); in experiment [27], > 40000 nM (active); in experiment [28], > 100000 nM (active); in experiment [29] it was 86000 nM (active). Further, the CC50 was > 50000 nM (active) in [30], 39800 nM (active) in [31] and > 50000 nM (active) in experiment [32]. Further, the AC50 was 8930 nM (active) at CAAX prenyl protease 2 and 7540 nM (active) at CAAX prenyl protease 1.
Take `N#Cc1cccc(C(C#N)c2c(Br)cnn(Cc3cccc4ccccc34)c2=O)c1` (centres undefined): the IC50 in experiment [33] and in experiment [34] was ~693 nM (active) throughout.
